From publication PMC4526861, “Inhibition of protein kinase C by isojacareubin suppresses hepatocellular carcinoma metastasis and induces apoptosis in vitro and in vivo” (Scientific Reports, 2015)

What was measured:
[1] = system: phosphorylated c-Raf, MEK1/2 and ERK1/2; test: Western blot of MAPK phosphorylation, QGY-7703; assay type: cell-based, human; conditions: QGY-7703, 24 h
Procedure: (§1) Additional PKC targeting effects involved in the early response of major MAPK phosphorylation and the late response of HCC cell invasion and apoptosis were investigated. After 24 h of treatment with ISJ at the indicated concentrations, the total protein lysates from HCC cells were analyzed (Fig. 6). ISJ inhibited the phosphorylated, activated forms of c-Raf, MEK1/2 and ERK1/2 in the MAPK signaling pathway in both HepG2 and QGY-7703 cells (Fig. 6a). […] In contrast, E-cadherin expression was elevated, specifically at the highest concentration of ISJ (20 μM) (Fig. 6b). In addition, we analyzed several representative apoptotic proteins, including cleaved PARP (c-PARP), p53 and p21. […] These findings support our hypothesis that ISJ restrains HCC cell metastasis and induces HCC cell apoptosis by specifically inhibiting PKC.
(§2) The total membrane and cytosolic proteins were extracted using a Membrane and Cytosol Protein Extraction Kit (Beyotime). Extracted proteins from cells or animal tissues were separated by SDS-PAGE and transferred to polyvinylidene difluoride (PVDF) membranes (Bio-Rad). The PVDF membranes were blocked with 5% nonfat milk and incubated with primary antibodies overnight, followed by incubation with a donkey anti-rabbit or anti-mouse secondary antibody (IRDye 800, LI-COR, Biosciences). […] The intensity was quantitative with Quantity One software (Bio-Rad). […]

PKCε = target: T1, PKCε (Homo sapiens, UniProt Q02156); test: Cell-based pull-down assay, PKCε; assay type: binding; conditions: HepG2 lysates
T1 construct: Endogenous cPKC (PKCα) and nPKC (PKCδ, PKCε and PKCμ) in HepG2 lysates were pulled down; endogenous in cells; host or cells: HepG2
T1 sequence (Q02156 1-737): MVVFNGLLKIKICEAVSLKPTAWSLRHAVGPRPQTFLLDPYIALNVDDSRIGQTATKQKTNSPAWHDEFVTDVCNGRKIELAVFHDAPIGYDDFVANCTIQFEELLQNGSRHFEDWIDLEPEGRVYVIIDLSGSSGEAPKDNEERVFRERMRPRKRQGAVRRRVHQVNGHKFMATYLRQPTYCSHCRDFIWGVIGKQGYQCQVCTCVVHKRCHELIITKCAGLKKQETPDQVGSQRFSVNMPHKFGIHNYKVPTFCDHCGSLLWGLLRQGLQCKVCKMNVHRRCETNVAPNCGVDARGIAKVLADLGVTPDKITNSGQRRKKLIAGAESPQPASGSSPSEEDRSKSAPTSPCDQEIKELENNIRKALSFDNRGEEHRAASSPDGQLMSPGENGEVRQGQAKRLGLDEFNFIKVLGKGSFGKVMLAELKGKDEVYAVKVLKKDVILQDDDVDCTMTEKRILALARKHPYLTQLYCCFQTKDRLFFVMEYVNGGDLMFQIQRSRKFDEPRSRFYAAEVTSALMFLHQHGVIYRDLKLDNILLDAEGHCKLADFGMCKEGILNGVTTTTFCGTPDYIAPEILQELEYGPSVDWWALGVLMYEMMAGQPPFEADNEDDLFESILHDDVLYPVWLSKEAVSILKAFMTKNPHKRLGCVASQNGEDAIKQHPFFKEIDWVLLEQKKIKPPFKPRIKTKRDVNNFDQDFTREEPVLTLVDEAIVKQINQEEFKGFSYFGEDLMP
Procedure: To identify whether ISJ and compound 7 target PKC in cells, we performed pull-down experiments using ISJ- and compound 7-coupled Sepharose beads with HepG2 cell lysates. Endogenous cPKC (PKCα) and nPKC (PKCδ, PKCε and PKCμ) in HepG2 lysates were pulled down by ISJ-coupled CNBr-activated Sepharose 4B beads (Fig. 5a).
The control beads were prepared by incubating the beads with DMSO. Proteins (500 μg) from lysed HepG2 cells were mixed with either the control beads, compound 7-coupled beads, or ISJ-coupled beads (100 μL) in reaction buffer [50 mM Tris (pH 7.5), 5 mM EDTA, 150 mM NaCl, 1 mM DTT, 0.01% NP-40, 2 μg/mL BSA, 1 mM PMSF, 1% protease inhibitor mixture]. After incubation with gentle rocking overnight at 4 °C, the beads were washed 5 times with washing buffer [50 mM Tris (pH 7.5), 5 mM EDTA, 150 mM NaCl, 1 mM DTT, 0.01% NP-40, 1 mM PMSF], and binding was visualized by western blotting.

QSG-7701 hepatocytes = test: Cell proliferation assay (CCK-8), QSG-7701 hepatocytes; assay type: cell-based, human; conditions: nonmalignant hepatocytes; mean ± SD
Procedure: The human HCC cell lines QGY-7703, SMMC-7721 and HepG2 and the liver cell line QSG-7701 were supplied by the Cell Resource Center, Institute of Life Sciences, Chinese Academy of Medical Science. QGY-7703, SMMC-7721 and QSG-7701 cells were cultured in 1640 medium (Gibco), and HepG2 cells were cultured in DMEM medium (Gibco) at 37 °C in moist air supplemented with 5% CO2. All media were supplemented with 10% fetal bovine serum (FBS) and 100 Units/mL of penicillin/streptomycin.
The cell viability assay was performed as previously reported using a Cell Counting Kit-8 (CCK-8; Dojindo, Kumamoto, Japan)[33][34]. The relative cell viability was presented as % inhibition and calculated using the following formula: […]

[2] = system: phosphorylated c-Raf, MEK1/2 and ERK1/2; test: Western blot of MAPK phosphorylation, HepG2; assay type: cell-based, human; conditions: HepG2, 24 h
Procedure: as §1, §2

HepG2 cells = test: Apoptosis assay, Annexin V-FITC/PI flow cytometry; assay type: cell-based, human; conditions: 48 h
Procedure: To further explore the potential mechanisms of the antiproliferative effects induced by compound 7 and ISJ, Annexin V-FITC/PI double staining was performed to quantify cellular apoptosis by flow cytometry. HepG2 cells were cultured for 48 h in the absence or presence of compound 7 or ISJ at different concentrations (5 or 15 μM).
HepG2 cells were seeded in six-well plates (5 × 10^5 cells/mL) for 24 h and then treated with various amounts of the compounds or 1% DMSO (as control). After 48 h, the cells floating in the medium were collected, and the adherent cells were detached with 0.05% trypsin, washed twice with cold PBS, and centrifuged at 1000 rpm for 5 min at 4 °C. Subsequently, HepG2 cells were gently resuspended in the binding buffer. Thereafter, the cells were stained using the Annexin V-FITC/PI apoptosis detection kit (BD Biosciences, San Jose, CA, USA). After incubation at room temperature for 15 min in the dark, the apoptotic cells were immediately analyzed by flow cytometry (FACS Calibur).

What does the source list for Isojacareubin [ISJ]?
phosphorylated, activated forms of c-Raf, MEK1/2 and ERK1/2 [1]: inhibited; pull-down of endogenous PKCε by compound-coupled Sepharose 4B beads (PKCε): pulled down; IC50 (QSG-7701 hepatocytes): 47.67 ± 0.08 µM; phosphorylated, activated forms of c-Raf, MEK1/2 and ERK1/2 [2]: inhibited; number of apoptotic cells compared to the control group (HepG2 cells; 5 μM): did not alter; percentage of apoptotic cells (HepG2 cells; 15 μM): increased significantly
